# Experimental data reported in patent publication US12466834B2, “Imidazodiazepinediones and methods of use thereof” (GFB (ABC), LLC, priority 2018, dated 2025).
# Molecular target: T1, human TRPC5 (Homo sapiens, UniProt Q9UL62)
# T1 construct: expressed in transfected cells
# T1 sequence (Q9UL62 1-973): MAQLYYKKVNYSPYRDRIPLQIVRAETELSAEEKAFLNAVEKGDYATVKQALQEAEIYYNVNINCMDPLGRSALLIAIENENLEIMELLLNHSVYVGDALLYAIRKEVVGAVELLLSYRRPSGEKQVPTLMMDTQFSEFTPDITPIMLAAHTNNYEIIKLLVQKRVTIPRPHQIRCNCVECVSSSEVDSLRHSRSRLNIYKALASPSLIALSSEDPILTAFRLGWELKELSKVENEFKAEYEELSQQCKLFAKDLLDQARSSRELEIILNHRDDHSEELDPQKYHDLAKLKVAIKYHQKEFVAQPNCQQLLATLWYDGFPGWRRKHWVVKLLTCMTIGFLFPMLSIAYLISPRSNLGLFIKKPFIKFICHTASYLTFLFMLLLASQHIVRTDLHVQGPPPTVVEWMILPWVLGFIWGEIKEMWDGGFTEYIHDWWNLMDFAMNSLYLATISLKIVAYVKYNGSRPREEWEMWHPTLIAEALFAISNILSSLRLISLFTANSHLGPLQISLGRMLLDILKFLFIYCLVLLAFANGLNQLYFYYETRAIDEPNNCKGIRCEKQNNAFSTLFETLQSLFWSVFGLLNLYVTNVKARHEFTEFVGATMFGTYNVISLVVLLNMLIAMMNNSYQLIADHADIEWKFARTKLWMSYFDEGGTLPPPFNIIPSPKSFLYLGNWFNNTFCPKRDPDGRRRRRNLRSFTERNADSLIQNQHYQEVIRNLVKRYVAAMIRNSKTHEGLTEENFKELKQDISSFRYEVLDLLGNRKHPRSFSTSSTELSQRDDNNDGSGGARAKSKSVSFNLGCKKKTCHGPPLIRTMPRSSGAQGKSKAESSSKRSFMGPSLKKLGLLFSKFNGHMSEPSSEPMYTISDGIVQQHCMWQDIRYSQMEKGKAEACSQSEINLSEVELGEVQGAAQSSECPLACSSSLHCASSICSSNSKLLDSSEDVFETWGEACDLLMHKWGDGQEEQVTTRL
# Experiment: FLIPR calcium assay, inhibition of riluzole-activated TRPC5 calcium response
# Assay type: cell-based
# Conditions: ICLN-1633 cells; riluzole 30 μM stimulation; Fluo-4 calcium response; read-out: Inhibitor Potency Range (FLIPR)
# Protocol: ICLN-1633 cells (HEK-TREx hTRPC5) expressing TRPC5 were generated as follows. Commercially available HekTrex-293 cells were seeded at 0.7×10^6 cells/well in a 1×6-well plate 24 hrs prior to transfection using 2 mL cell growth media containing no antibiotics (1× DMEM/high glucose (Hyclone #SH30022.02); 10% fetal bovine serum (Sigma) 2 mM sodium pyruvate, 10 mM HEPES). The human TRPC5 coding sequence (NM_012471 with a silent T478C mutation) was cloned into pcDNA5/TO (Invitrogen; Cat No. V103320) using hygromycin as the resistance gene and the plasmid (SEQ ID NO:1) propagated using T-Rex-293 cells (Invitrogen; Cat No. R71007) following manufacturer's directions. On day 2, 2 μg of plasmid DNA plus 6 μl of Xtreme-GENE HP reagent in Optimem (200 μl total volume) was prepared and incubated for 15 min at room temperature. This plasmid solution was then gently overlayed dropwise onto each well and the plate was gently swirled to mix complex with the media for approximately 30 seconds. Transfected cells were incubated at 37° C. in a 10% CO2 incubator for 24 hrs. The transfected cells were harvested and transferred into 2×150 mm dishes containing cell growth media with no antibiotics at 37° C.
# Compounds were made up to, or supplied as a 10 mM stock solution generally using DMSO as the vehicle. 10-point dose response curves were generated using the Echo-550 acoustic dispenser. Compound source plates were made by serially diluting compound stocks to create 10 mM, 1 mM, and 0.1 mM solutions in DMSO into Echo certified LDV plates. The Echo then serially spotted 100% DMSO stock solutions into source dose response plates to generate a 4-fold dilution scheme. 100% DMSO was added to the spotted dose response plates to bring the final volume to 5 μl. 300 nl of the dose response stock plate was then spotted into pre-incubation and stimulation assay plates. 50 μl of pre-incubation buffer and 100 μl of stimulation buffer was then added to the plates resulting in a final assay test concentration range of 30 μM to 0.0001 μM with a final DMSO concentration of 0.3%.
# Human ICLN-1633 cells expressing were plated onto 384 well, black poly-D-lysine-coated microplates and maintained in TRPC5 growth media the day prior to use for experiments. TRPC5 expression was induced by the application of 1 μg/mL tetracycline at the time of plating. Media was removed from the plates and 10 μl of 4 μM of Fluo-4 AM (mixed with equal volume of Pluronic F-127) in Earls's Balanced Salt Solution (EBSS) was added to the cells. Cells were incubated at room temperature, protected from light, for 60-90 minutes. After the incubation period, the dye was removed and replaced with 10 μl of EBSS. Cell, pre-incubation and stimulation plates were loaded onto the FLIPR-II and the assay was initiated. The FLIPR measured a 10 second baseline and then added 10 μl of 2× compounds (or controls). Changes in fluorescence were monitored for an additional 5 minutes. After the 5 minute pre-incubation, 20 μl of 2× riluzole (with 1× compound or controls) was added to the cell plate. The final riluzole stimulation concentration in the assay was 30 μM. After the riluzole addition, changes in fluorescence were monitored for an additional 5 minutes. Reduction in the riluzole-activated calcium response relative to control wells was reported as inhibition. A compound-mediated increase in the riluzole response relative to control riluzole response (no test agent present) with no enhancement of calcium entry during preincubation phase was reported as an agonist response.
# Compound inhibition of TRPC5 calcium response was determined as follows. After the riluzole addition, fluorescence was monitored for a 5-minute period. For inhibition, the maximum relative fluorescence response (minus the control response of 1 μM of an internal control compound known to maximally block TRPC5 calcium response, the “REF INHIB” in the formula below) was captured and exported from the FLIPR. […]
row,SMILES,IC50
1,"C[C@@H]1C(=O)N(C)c2nc(Oc3cccc(F)c3)n(Cc3ccc(Cl)cc3)c2C(=O)N1CCCO (single isomer, unassigned) [Compound 19]",> 10 µM
2,"O=C1c2c(nc(Oc3cccc(OC(F)(F)F)c3)n2Cc2ccc(Cl)cc2)N2CCC[C@H]2C(=O)N1CCCO (single isomer, unassigned) [Compound 22]",> 10 µM
3,"O=C1c2c(nc(Oc3cccc(OC(F)(F)F)c3)n2Cc2ccc(Cl)cc2)N2CCC[C@@H]2C(=O)N1CCCO (single isomer, unassigned) [Compound 23]",0.001 to 1 µM
4,"CN1CC(=O)N(CCCO)C(=O)c2c1nc(Oc1cccc(OC(F)(F)F)c1)n2Cc1ccc(Cl)cc1 [Compound 21, 1-[(4-chlorophenyl)methyl]-7-(3-hydroxypropyl)-4-methyl-2-[3-(trifluoromethoxy)phenoxy]-1H,4H,5H,6H,7H,8H-imidazo[4,5-e][1,4]diazepine-6,8-dione]",0.001 to 1 µM
